Data reported in US20120115896A1, “ISOGENIC HUMAN CELL LINES COMPRISING MUTATED CANCER ALLELES AND PROCESS USING THE CELL LINES” (priority 2008, published 2012).
Like-named read-outs stand apart in the source and are kept apart here.

Assays:
[1] = tested on: hTERT-HME1 DKI cells carrying PIK3CA (H1047R) and EGFR (delE746-A750)
[2] = tested on: hTERT-HME1 cells carrying BRAF (V600E) KI
[3] = tested on: hTERT-HME1 cells carrying KRAS (G13D) KI
[4] = tested on: hTERT-HME1 cells carrying PIK3CA (E545K and H1047R) KI
[5] = tested on: hTERT-HME1 cells carrying EGFR (delE746-A750) KI
[6] = tested on: HCT 116 colorectal cancer cells and derivative clones (HKh-2, HKe-3, HK2-6, PIK3CA WT/mutant); assay: Viability (ATP assay) of HCT 116 cells and isogenic KRAS / PIK3CA derivative clones; conditions: HCT 116, FIG. 8A
Experimental: (§1) Results are expressed as percent of viability compared to cells treated with DMSO only ('control') and represent mean±SD of at least three independent observations.
(§2) After serial dilutions, 100 μl of drugs in serum free medium were added to cells with a multichannel pipette. Vehicle and medium-only containing wells were added as controls. Plates were incubated at 37° C. in 5% CO2 for 96 h, after which cell viability was assessed by ATP content using the CellTiter-Glo® Luminescent Assay (Promega Madison, Wis.).

[7] = tested on: DLD-1 colorectal cancer cells and derivative clones (DKO-1, DKO-3, DKO-4, PIK3CA WT/mutant); assay: Viability (ATP assay) of DLD-1 cells and isogenic KRAS / PIK3CA derivative clones; conditions: DLD-1, FIG. 8B
Experimental: as §1, §2

## CC(C)=CCc1c(O)cc(O)c2c1O[C@H](c1ccc(O)cc1)CC2=O [8-Prenylnaringenin]
[1]; Log(M) −3.20
  ΔKI PIK3CA + EGFR: 0.02
[1]; Log(M) −3.68
  ΔKI PIK3CA + EGFR: 1.52
[2]; Log(M) −3.20
  ΔKI BRAF: 0.02
[2]; Log(M) −3.68
  ΔKI BRAF: 0.88
[3]; Log(M) −3.20
  ΔKI KRAS: 0.02
[3]; Log(M) −3.68
  ΔKI KRAS: 0
[4]; Log(M) −3.20
  ΔKI PIK3CA: 0.02
[4]; Log(M) −3.68
  ΔKI PIK3CA: 0
[5]; Log(M) −3.20
  ΔKI EGFR: 0
[5]; Log(M) −3.68
  ΔKI EGFR: 1.16

## Oc1cccc(-c2nc(N3CCOCC3)c3oc4ncccc4c3n2)c1 [PI-103]
[1]; Log(M) −6.00
  ΔKI PIK3CA + EGFR: 0
[1]; Log(M) −7.00
  ΔKI PIK3CA + EGFR: 0
[1]; Log(M) −8.00
  ΔKI PIK3CA + EGFR: 0
[2]; Log(M) −6.00
  ΔKI BRAF: 0
[2]; Log(M) −7.00
  ΔKI BRAF: 0
[2]; Log(M) −8.00
  ΔKI BRAF: 0
[3]; Log(M) −6.00
  ΔKI KRAS: 0
[3]; Log(M) −7.00
  ΔKI KRAS: 0
[3]; Log(M) −8.00
  ΔKI KRAS: 0
[4]; Log(M) −6.00
  ΔKI PIK3CA: 0
[4]; Log(M) −7.00
  ΔKI PIK3CA: 0
[4]; Log(M) −8.00
  ΔKI PIK3CA: 0
[5]; Log(M) −6.00
  ΔKI EGFR: 3.9
[5]; Log(M) −7.00
  ΔKI EGFR: 0
[5]; Log(M) −8.00
  ΔKI EGFR: 0

## O=c1cc(-c2ccc(O)cc2)oc2cc(O)cc(O)c12 [Apigenin]
[1]; Log(M) −4.40
  ΔKI PIK3CA + EGFR: 0
[1]; Log(M) −4.70
  ΔKI PIK3CA + EGFR: 0
[1]; Log(M) −5.00
  ΔKI PIK3CA + EGFR: 0
[2]; Log(M) −4.40
  ΔKI BRAF: −3.18
[2]; Log(M) −4.70
  ΔKI BRAF: −2.32
[2]; Log(M) −5.00
  ΔKI BRAF: 0
[3]; Log(M) −4.40
  ΔKI KRAS: 0
[3]; Log(M) −4.70
  ΔKI KRAS: 0
[3]; Log(M) −5.00
  ΔKI KRAS: 0
[4]; Log(M) −4.40
  ΔKI PIK3CA: 0
[4]; Log(M) −4.70
  ΔKI PIK3CA: 0
[4]; Log(M) −5.00
  ΔKI PIK3CA: 0
[5]; Log(M) −4.40
  ΔKI EGFR: 0
[5]; Log(M) −4.70
  ΔKI EGFR: 0
[5]; Log(M) −5.00
  ΔKI EGFR: 0

## O=C(NOCC1CC1)c1ccc(F)c(F)c1Nc1ccc(I)cc1Cl [CI-1040, CI-1040 (PD 184352)]
[6]
  effect on PIK3CA WT/− cells versus isogenic PIK3CA mutant cells: affects to a greater extent
[6]; with everolimus 10^−7 M
  effect on PIK3CA mutant cells in combination with everolimus: effects comparable to those achievable by the MEK inhibitor alone
[7]
  effect on PIK3CA WT/− cells versus isogenic PIK3CA mutant cells: affects to a greater extent
[7]; with everolimus 10^−7 M
  effect on PIK3CA mutant cells in combination with everolimus: effects comparable to those achievable by the MEK inhibitor alone
